In patent US8586551B2, “18-membered macrocycles and analogs thereof” (Optimer Pharmaceuticals, Inc., priority 2005, dated 2013):
≈ marks a conversion by molar mass, not a printed value.

What was measured:
[1] = system: C. difficile clinical isolates; experiment: MIC via agar dilution versus 110 clinical isolates of C. difficile; assay type: cell-based
Bacteroides fragilis = experiment: MIC against anaerobes: Bacteroides fragilis; assay type: cell-based; conditions: Bacteroides fragilis (19)
Protocol: The in vitro activity of OPT-80 was determined against 350 anaerobes. The experimental procedure for which is outlined in Antimicrobial Agents and Chemotherapy, 2004, 48: 4430-4434, which is hereby incorporated by reference in its entirety.
All organisms, including the 21 C. difficile strains, were separate isolates and not clonally related. All quality-control gram-negative and -positive strains recommended by NCCLS were included with each run: in every case, results (where available) were in range.

[2] = system: Peptostreptococcus tetradius; experiment: MIC against anaerobes: Peptostreptococcus tetradius; assay type: cell-based; conditions: Peptostreptococcus tetradius (16)
Finegoldia magna = experiment: MIC against anaerobes: Finegoldia magna; assay type: cell-based; conditions: Finegoldia magna (15)
Propionibacterium acnes = experiment: MIC against anaerobes: Propionibacterium acnes; assay type: cell-based; conditions: Propionibacterium acnes (20)
[3] = system: Bacteroides fragilis group spp.; experiment: MIC against intestinal bacteria: Bacteroides fragilis group; assay type: cell-based
[4] = system: All anaerobic gram-negative species; experiment: MIC against intestinal bacteria: all anaerobic gram-negative species; assay type: cell-based
Clostridium bifermentans = experiment: MIC against intestinal bacteria: Clostridium bifermentans; assay type: cell-based; conditions: Clostridium bifermentans (9)
Clostridium perfringens = assay type: cell-based; conditions: Clostridium perfringens (14)
[5] = system: Anaerobic gram-positive cocci; experiment: MIC against intestinal bacteria: anaerobic gram-positive cocci; assay type: cell-based; conditions: Anaerobic gram-positive cocci (49)
[6] = system: Other Streptococcus species; experiment: MIC against intestinal bacteria: other Streptococcus species; assay type: cell-based; conditions: Other Streptococcus species (9)
Protocol: The in vitro activity of OPT-80 against intestinal bacteria was evaluated. The experimental procedure for which is outlined in Antimicrobial Agents and Chemotherapy, 2004, 48: 4898-4902, which is hereby incorporated by reference in its entirety.
Antimicrobial concentration ranges were selected to encompass or surpass the levels that would be achieved in the gut (to the extent that this information is available), subject to the limitations of solubility of the drugs in the testing medium. The range of concentration of OPT-80 used during testing was 0.03 μg/ml to 1024 μg/ml.
For analysis, the bacteria tested were generally placed into genus, species, or other groups with at least 10 isolates. The ranges and the MICs at which 50 and 90% of isolates were inhibited were determined except for organisms with fewer than 10 strains tested, for which only the ranges are reported (Table 8).

C. difficile = experiment: MIC versus C. difficile strains; conditions: Clostridioides difficile
E. faecalis = experiment: MIC against other microorganisms: E. faecalis; conditions: Enterococcus faecalis

## CCc1c(Cl)c(O)c(Cl)c(O)c1C(=O)O[C@H]1[C@H](O)[C@H](OC)[C@H](OCC2=CC=CC[C@H](O)C(C)=C[C@H](CC)[C@@H](O[C@@H]3OC(C)(C)[C@@H](OC(=O)C(C)C)[C@H](O)[C@@H]3O)C(C)=CC(C)=CC[C@@H]([C@@H](C)O)OC2=O)O[C@@H]1C [R-Tiacumicin B, 3-[[[6-Deoxy-4-O-(3,5-dichloro-2-ethyl-4,6-dihydroxybenzoyl)-2-O-methyl-β-D-mannopyranosyl]oxy]-methyl]-12(R)-[[6-deoxy-5-C-methyl-4-O-(2-methyl-1-oxopropyl)-β-D-lyxo-hexopyranosyl]oxy]-11(S)-ethyl-8(S)-hydroxy-18(S)-(1(R)-hydroxyethyl)-9,13,15-trimethyloxacyclooctadeca-3,5,9,13,15-pentaene-2-one]
[1]; isolate 100 6353
  MIC: 0.125 µg/mL (≈ 0.118 µM)
[1]; isolate A1 1535
  MIC: 0.125 µg/mL (≈ 0.118 µM)
[1]; isolate AF1 1808
  MIC: 0.125 µg/mL (≈ 0.118 µM)
[1]; isolate AG1 3044
  MIC: 0.125 µg/mL (≈ 0.118 µM)
[1]; isolate AH1 3430
  MIC: 0.125 µg/mL (≈ 0.118 µM)
[1]; isolate AN1 464
  MIC: 0.125 µg/mL (≈ 0.118 µM)
[1]; isolate AO1 287
  MIC: 0.125 µg/mL (≈ 0.118 µM)
[1]; isolate AS1 4099
  MIC: 0.125 µg/mL (≈ 0.118 µM)
[1]; isolate AT1 1216
  MIC: 0.125 µg/mL (≈ 0.118 µM)
[1]; isolate AW1 4501
  MIC: 0.125 µg/mL (≈ 0.118 µM)
[1]; isolate BE1 4307
  MIC: 0.125 µg/mL (≈ 0.118 µM)
[1]; isolate BI1 1675
  MIC: 0.125 µg/mL (≈ 0.118 µM)
[1]; isolate BK1 4291
  MIC: 0.125 µg/mL (≈ 0.118 µM)
[1]; isolate BL1 716
  MIC: 0.125 µg/mL (≈ 0.118 µM)
[1]; isolate BN1 1322
  MIC: 0.125 µg/mL (≈ 0.118 µM)
[1]; isolate BW1 3130
  MIC: 0.125 µg/mL (≈ 0.118 µM)
[1]; isolate BX1 4271
  MIC: 0.125 µg/mL (≈ 0.118 µM)
[1]; isolate CF1 5922
  MIC: 0.125 µg/mL (≈ 0.118 µM)
[1]; isolate CG1 1566
  MIC: 0.125 µg/mL (≈ 0.118 µM)
[1]; isolate CJ1 893
  MIC: 0.125 µg/mL (≈ 0.118 µM)
[1]; isolate CP1 5491
  MIC: 0.125 µg/mL (≈ 0.118 µM)
[1]; isolate F1 1015
  MIC: 0.125 µg/mL (≈ 0.118 µM)
[1]; isolate G1 1077
  MIC: 0.125 µg/mL (≈ 0.118 µM)
[1]; isolate I1 1389
  MIC: 0.125 µg/mL (≈ 0.118 µM)
[1]; isolate K1 4305
  MIC: 0.125 µg/mL (≈ 0.118 µM)
[1]; isolate K14 5780
  MIC: 0.125 µg/mL (≈ 0.118 µM)
[1]; isolate L1 1423
  MIC: 0.125 µg/mL (≈ 0.118 µM)
[1]; isolate N1 471
  MIC: 0.125 µg/mL (≈ 0.118 µM)
[1]; isolate R1 397
  MIC: 0.125 µg/mL (≈ 0.118 µM)
[1]; isolate V1 1521
  MIC: 0.125 µg/mL (≈ 0.118 µM)
[1]; isolate W1 3931
  MIC: 0.125 µg/mL (≈ 0.118 µM)
[1]; isolate X1 1890
  MIC: 0.125 µg/mL (≈ 0.118 µM)
Bacteroides fragilis
  MIC50: > 128 µg/mL
  MIC90: > 128 µg/mL
[2]; Anaerococcus tetradius
  MIC50: 1 µg/mL (≈ 0.945 µM)
  MIC90: 1 µg/mL (≈ 0.945 µM)
[2]
  MIC range: 0.25 to 2.0 µg/mL
Finegoldia magna
  MIC50: 1 µg/mL (≈ 0.945 µM)
  MIC90: 1 µg/mL (≈ 0.945 µM)
  MIC range: 0.25 to 2.0 µg/mL
Propionibacterium acnes; Cutibacterium acnes
  MIC50: 4 µg/mL (≈ 3.78 µM)
  MIC90: 4 µg/mL (≈ 3.78 µM)
Propionibacterium acnes
  MIC range: 0.5 to 1.0 µg/mL
[3]; Bacteroides fragilis
  MIC90: > 1020 µg/mL
[3]; Bacteroides fragilis group spp. (50)
  MIC50: 256 µg/mL (≈ 242 µM)
[4]
  MIC90: > 1020 µg/mL
[4]; All anaerobic gram-negative species (111)
  MIC50: 256 µg/mL (≈ 242 µM)
Clostridium bifermentans
  MIC range: 0.06 µg/mL (≈ 0.0567 µM)
Clostridium perfringens
  MIC range: 0.06 µg/mL (≈ 0.0567 µM)
[5]
  MIC50: 0.5 µg/mL (≈ 0.473 µM)
  MIC90: 2 µg/mL (≈ 1.89 µM)
[6]
  MIC range: 16 to 128 µg/mL
C. difficile
  MIC: 0.125 µg/mL (≈ 0.118 µM)
C. difficile; ATCC9689
  MIC: 0.03 µg/mL (≈ 0.0284 µM)
C. difficile; ATCC17857
  MIC: 0.03 µg/mL (≈ 0.0284 µM)
C. difficile; ATCC43255
  MIC: 0.125 µg/mL (≈ 0.118 µM)
E. faecalis; ATCC29212, Strain ID # 4, E. faecalis (ATCC 29212)
  MIC: 2 µg/mL (≈ 1.89 µM)
E. faecalis; Strain ID # 5, E. faecalis Vanc. resistant
  MIC: 4 µg/mL (≈ 3.78 µM)
E. faecalis; Strain ID # 6, E. faecalis Vanc. resistant
  MIC: 1 µg/mL (≈ 0.945 µM)
